Compared with `COC(=O)CC(=O)CC(O)/C=C/c1c(-c2ccc(F)cc2)n(C(C)C)c(=O)c2ccccc12` (stereo not given), `COC(=O)C1=C(C)NC(C)=C(C(=O)OCCC#N)C1c1cccc2c(=O)c(C)c(-c3ccccc3)oc12` (stereo not given) is higher in melting point: 147 to 149 °C for the first, 190 to 192 °C for the second.

First: CC(C)NCCCOc1ccc(O)cc1
Second: COc1ccc(CS(=O)C(C)(C)C)cc1 (stereo not given)
The melting point of the first is lower: 92 to 100 °C for the first, 124 to 126 °C for the second.

Compared with `Cc1cnc2c(c1)CCCC2NC(N)=S` (stereo not given), `ON=C1CCc2cc(Cl)ccc21` is higher in melting point: 114 °C for the first, 181 to 182 °C for the second.

First: CC1(C)CC(=O)c2c(O)cc(C=Cc3ccccc3)cc2O1
Second: COc1ccc(C(=O)C=Cc2cc(O)c(O)c([N+](=O)[O-])c2)cc1
The melting point of the first is lower: 116 °C for the first, 222 to 228 °C for the second.

Compared with `CC(=NO)c1ccc(N2CC(CO)OC2=O)cc1` (stereo not given), `Cc1c(Cl)sn(-c2ccc(Cl)cc2)c1=O` is lower in melting point: 190 °C for the first, 104 to 106 °C for the second.

First: O=S(=O)(Nc1ccc(Cl)cc1-c1cc(-c2ccc(F)cc2F)on1)C(F)(F)F
Second: CC(=O)Nc1cc(Cl)c(C(C#N)c2ccc(Cl)c(C(F)(F)F)c2)c(Cl)c1 (stereo not given)
The melting point of the first is lower: 117 to 119 °C for the first, 172 °C for the second.

Compared with `CCc1nsc(NC(=O)C(C)c2ccc3oc(-c4c(F)cccc4Cl)nc3c2)c1Cl` (stereo not given), `O=C(O)c1cc(Cl)cc([N+](=O)[O-])c1NCc1ccccc1Cl` is lower in melting point: 178 to 179 °C for the first, 160 to 161 °C for the second.

Compared with `O=C(c1ccccc1)c1ccccc1Nc1ncccc1[N+](=O)[O-]`, `CN1C(=O)[C@H](NC(=O)/C=C/c2ccccc2Br)N=C(c2ccccc2)c2ccccc21` is higher in melting point: 85 °C for the first, 113 to 116 °C for the second.

Compared with `CCCCCCCCCCCCCCCCCCCCCCOS(=O)(=O)c1ccc(Cl)cc1`, `CCCCCCCCCCCCCCCCCCCc1cccc(N)c1` is lower in melting point: 74 to 75 °C for the first, 50 to 51 °C for the second.

First: O=C(O)c1ccc(Oc2ccccc2C(=O)O)cc1
Second: O=C(NC(=O)N1CCC(Cc2ccccc2)CC1)c1ccc(OCc2ccccc2)cc1
The melting point of the first is higher: 220 to 223 °C for the first, 155 to 156 °C for the second.

First: COC(=O)c1ccc(CNC(=O)c2cccc(-c3nnn(Cc4ccc(OC)cc4)n3)c2)cc1
Second: COc1ccc(-c2nn(-c3ccsc3)c3c(Cl)cccc23)cc1
The melting point of the first is higher: 167 to 168 °C for the first, 111 °C for the second.

First: CCCCNC(=O)CCc1ccccc1
Second: CCCCc1cccn1NS(=O)(=O)C1CCCC=C1C(=O)OCC (stereo not given)
The melting point of the first is lower: 26.7 to 33.1 °C for the first, 49 to 50 °C for the second.

First: Cc1ccc(S(=O)(=O)Cc2c(-c3cc([N+](=O)[O-])cc([N+](=O)[O-])c3)nn(C)c2O)cc1
Second: CCCn1nc(-c2ccc(O)cc2)c2cccc(-c3ccccc3)c21
The melting point of the first is higher: 192 to 194 °C for the first, 171 to 172 °C for the second.

First: O=C(O)COc1cccc2c1CCc1sc(SCC(c3ccccc3)c3ccccc3)nc1-2
Second: CCOc1ccccc1C(=O)Nc1ccc(C(=O)N2Cc3cccn3Cc3ccccc32)cc1
The melting point of the first is higher: 223 to 225 °C for the first, 160 to 176 °C for the second.

First: CCCCCCOc1ccc2c(CC#N)c(OCCCCCC)ccc2c1CC#N
Second: CCSc1ccc2c3c(cccc13)C(=O)N2
The melting point of the first is lower: 135 to 136 °C for the first, 144 to 146 °C for the second.

Going from `COc1ccc(-c2[nH]nc3c2C(=O)c2c(NC(=O)N[C@@H]4CCCC[C@@H]4N)cccc2-3)cc1` (relative stereo) to `O=C(Nc1cc2ncc(CN3CCCC3)cc2cc1Cl)c1ccc(-c2ccc(F)cc2)cc1`, the melting point falls from > 300 °C to 188 °C.

First: CC(C)OC(=O)Cn1c(=O)n(C)c(=O)n(-c2cc(N3C(=O)c4cccc(F)c4C3=O)c(F)cc2Cl)c1=O
Second: COc1cc2c(cc1Nc1ncc(Cl)c(Nc3cc(C(N)=O)ccc3OC)n1)CCN(CCS(C)(=O)=O)CC2
The melting point of the first is lower: 119 to 125 °C for the first, 232 to 243 °C for the second.

First: O=C(CCCN1CCOCC1)c1ccc2c(c1)Cc1cc(C(=O)CCCN3CCOCC3)ccc1-2
Second: CC(=O)N1CCC(C(=O)N(CCCN2CCC(Cc3ccccc3)CC2)c2ccc(C)c(Cl)c2)CC1
The melting point of the first is higher: 166 to 168 °C for the first, 96 to 99 °C for the second.

First: Cc1c(-c2ncncc2Br)ssc1=S
Second: Cc1cc(C)c(C=O)c(O)c1C
The melting point of the first is higher: 122 °C for the first, 74 to 75.5 °C for the second.

First: CC(C)C(NC(=O)c1ccccn1)C(=O)NC(Cc1ccccc1)C(O)C(O)C(Cc1ccccc1)NC(=O)C(NC(=O)c1ccccn1)C(C)C (stereo not given)
Second: CCN(CC)C(=O)c1ccc(C(=O)N2CCN(c3ncccc3NC(C)C)CC2)nc1
The melting point of the first is higher: 167 to 171 °C for the first, 100 to 102 °C for the second.

Compared with `CC1(CC(=O)Nc2ccccc2)OCCc2c1[nH]c1ccccc21` (stereo not given), `Nc1ccc(C(=O)N2Cc3ccnn3Cc3ccccc32)c(Cl)c1` is lower in melting point: 205 to 208 °C for the first, 98 to 117 °C for the second.

First: N#Cc1c[nH]c(Cl)c1-c1ccccc1
Second: N#Cc1cccc2c1NCCC2
The melting point of the first is higher: 140 to 142 °C for the first, 75 to 76 °C for the second.

First: NC(=O)N1CCc2cc(S(N)(=O)=O)sc2C1
Second: O=C1C(=O)c2ccccc2C2=C1SCC1(CCN(S(=O)(=O)c3cccs3)CC1)O2
The melting point of the first is lower: 205 to 208 °C for the first, 245 to 248 °C for the second.

First: Nc1ccccc1C(=O)NC1CCN(CCCOc2ccc3c4c(c(=O)oc3c2)CCC4)CC1
Second: COc1cc(C(C)C)c(NC(=O)CN2CCN(CCCSc3nc4ccccc4o3)CC2)c(C(C)C)c1
The melting point of the first is higher: 269 to 270 °C for the first, 129 to 130 °C for the second.

First: O=C1CC(c2cccc(-c3nc(CCl)co3)c2)=Nc2ccc(-n3cccc3)cc2N1
Second: Nc1c(-c2ccc(-c3ccccc3)cc2)nc2c(Cl)cc(Cl)cc2c1C(=O)O
The melting point of the first is lower: 206 to 207 °C for the first, 244 to 245 °C for the second.

First: CCOC(=O)n1nc(N(C)C)c2c(Cl)cccc21
Second: C=CCNc1nc(C)c(C(=O)c2ccc(Cl)c([N+](=O)[O-])c2)s1
The melting point of the first is lower: 60 to 62 °C for the first, 154 to 156 °C for the second.

First: N#CC(NC(=O)c1cccc(Cl)c1)n1ccnn1 (stereo not given)
Second: CC(=O)c1cccc(-c2cncc(OC3SCC(O)C(O)C3O)c2)c1 (stereo not given)
The melting point of the first is lower: 157 to 159 °C for the first, 159 to 163 °C for the second.

Compared with `CC1(C)O[C@@H]2[C@H](O1)[C@@H](CO)O[C@H]2n1cnc2c(N)nc(I)nc21`, `Nc1nc(-c2ccncc2)nc2c1c(Br)nn2C1CCCC1` is higher in melting point: 185 to 187 °C for the first, 189 to 191 °C for the second.

Compared with `O=C(O)C(=NO)C(c1ccc(OCc2ccc3cc(F)ccc3n2)cc1)c1ccc(OCc2ccc3cc(F)ccc3n2)cc1`, `COc1ccc2c(c1)nc(COc1ccc(CC3SC(=O)NC3=O)cc1)n2C` (stereo not given) is higher in melting point: 107 °C for the first, 209 to 210 °C for the second.

First: O=[N+]([O-])c1ccc2c(c1)S(=O)(=O)N=C(NC1CCC1)N2
Second: N#Cc1cccc2c1NC(=O)C2c1ncnc2nn(C3CCCC3)cc12 (stereo not given)
The melting point of the first is lower: 298 to 301 °C for the first, > 380 °C for the second.

First: CC1CC(=O)c2c(OS(=O)(=O)c3cccs3)ccc(-c3nccs3)c2C1 (stereo not given)
Second: COc1c(-c2noc3ccsc23)ccc2c1O2
The melting point of the first is higher: 111 to 113 °C for the first, 88 to 90 °C for the second.

First: O=C1N[C@H](Cc2cccc(OCC(F)(F)C(F)F)c2)[C@H](c2ccc(F)cc2)O1 (racemic)
Second: CC(C)(C)NC(=O)c1nn(-c2ccc(F)cc2F)c2c1CC1CC2C1(C)C (stereo not given)
The melting point of the first is lower: 113 to 114 °C for the first, 168 to 171 °C for the second.

Compared with `O=CC1=C(Br)CC(F)(Br)C=C1` (stereo not given), `CC(CSS)C(=O)Nc1ncccc1C(=O)O` (stereo not given) is higher in melting point: 57 to 58 °C for the first, 95 to 100 °C for the second.

`COc1ccc(OC)c2c1C=C(C(=O)O)CC2` and `COc1cc2c(cc1OC)CN(CCCCc1ccc(NC(=O)c3cnc4cc(C)c(C)cc4n3)cc1)CC2` cannot be ordered by melting point: < 220 °C for the first, 100 to 105 °C for the second.

First: CN(C)Cc1cc2c(s1)Oc1ccccc1N=C2N1CCN(C)CC1
Second: CCCCn1c(=O)[nH]c2cc(Cl)cc(Cl)c2c1=O
The melting point of the first is lower: 188 to 189 °C for the first, 198 to 201 °C for the second.
